Source: article PMC10569036

Assays:
[1] = shake flask on a mixture of 185; loss from the water phase only; LC-QTOF peak areas; conditions: room
[2] = shake flask on a mixture of 185; loss from the water phase only; LC-Orbitrap peak areas; conditions: room

log partition 1-octanol / HPLC water, unbuffered, traces of methanol / DMSO [2] [log10] | log partition butyl acetate / HPLC water, unbuffered, traces of methanol / DMSO [2] [log10] | log partition chloroform / HPLC water, unbuffered, traces of methanol / DMSO [2] [log10] | log partition cyclohexane / HPLC water, unbuffered, traces of methanol / DMSO [2] [log10] | log partition dichloromethane / HPLC water, unbuffered, traces of methanol / DMSO [2] [log10] | log partition n-hexane / HPLC water, unbuffered, traces of methanol / DMSO [2] [log10] | log partition n-octane / HPLC water, unbuffered, traces of methanol / DMSO [2] [log10] | log partition n-undecane / HPLC water, unbuffered, traces of methanol / DMSO [2] [log10] | log partition oleylalcohol / HPLC water, unbuffered, traces of methanol / DMSO [2] [log10] | log partition toluene / HPLC water, unbuffered, traces of methanol / DMSO [2] [log10] | Compound | log partition 1-octanol / HPLC water, unbuffered, traces of methanol / DMSO [1] [log10] | log partition butyl acetate / HPLC water, unbuffered, traces of methanol / DMSO [1] [log10] | log partition chloroform / HPLC water, unbuffered, traces of methanol / DMSO [1] [log10] | log partition cyclohexane / HPLC water, unbuffered, traces of methanol / DMSO [1] [log10] | log partition dichloromethane / HPLC water, unbuffered, traces of methanol / DMSO [1] [log10] | log partition n-hexane / HPLC water, unbuffered, traces of methanol / DMSO [1] [log10] | log partition n-octane / HPLC water, unbuffered, traces of methanol / DMSO [1] [log10] | log partition n-undecane / HPLC water, unbuffered, traces of methanol / DMSO [1] [log10] | log partition oleylalcohol / HPLC water, unbuffered, traces of methanol / DMSO [1] [log10] | log partition toluene / HPLC water, unbuffered, traces of methanol / DMSO [1] [log10]
-0.5893 | 1.182 | 0.09364 | -1.331 | 0.4348 | -1.472 | -1.686 | 0.1413 | 0.5204 | -0.3191 | O=C(O)CCN(C1(C(=O)NO)CCCC1)S(=O)(=O)c1ccc(Oc2ccc(F)cc2)cc1 |  |  |  |  |  |  |  |  |  | 
1.712 | 0.5487 | 0.2279 |  | 0.3361 |  |  |  | 0.1785 | -0.2455 | NC(=O)N/N=C/c1ccc([N+](=O)[O-])o1 |  |  |  |  |  |  |  |  |  | 
1.387 | 0.7851 | 0.6596 | -0.3102 | 0.6345 | 0.495 | -0.2565 | -0.1964 | -0.5567 | 0.2589 | COc1ccccc1/C=C/C=O |  |  |  |  |  |  |  |  |  | 
-0.191 | -0.07834 | 0.168 | -0.8356 | 0.3352 | -1.06 | -1.182 | -1.177 | -0.5168 | -0.2474 | CCCCC(CC)COC(=O)c1ccccc1C(=O)O (stereo not shown) |  |  |  |  |  |  |  |  |  | 
0.8444 | 0.4506 | 0.8919 | -0.4431 | 0.1616 | -0.7051 | -0.2813 | -0.7594 | 0.2271 | -0.3508 | CC(=O)Oc1ccc(C(C)=O)cc1 |  |  |  |  |  |  |  |  |  | 

The next lines start with the molecule.

Compound | log partition 1-octanol / HPLC water, unbuffered, traces of methanol / DMSO [2] [log10] | log partition butyl acetate / HPLC water, unbuffered, traces of methanol / DMSO [2] [log10] | log partition chloroform / HPLC water, unbuffered, traces of methanol / DMSO [2] [log10] | log partition cyclohexane / HPLC water, unbuffered, traces of methanol / DMSO [2] [log10] | log partition dichloromethane / HPLC water, unbuffered, traces of methanol / DMSO [2] [log10] | log partition n-hexane / HPLC water, unbuffered, traces of methanol / DMSO [2] [log10] | log partition n-octane / HPLC water, unbuffered, traces of methanol / DMSO [2] [log10] | log partition n-undecane / HPLC water, unbuffered, traces of methanol / DMSO [2] [log10] | log partition oleylalcohol / HPLC water, unbuffered, traces of methanol / DMSO [2] [log10] | log partition toluene / HPLC water, unbuffered, traces of methanol / DMSO [2] [log10] | log partition 1-octanol / HPLC water, unbuffered, traces of methanol / DMSO [1] [log10] | log partition butyl acetate / HPLC water, unbuffered, traces of methanol / DMSO [1] [log10] | log partition chloroform / HPLC water, unbuffered, traces of methanol / DMSO [1] [log10] | log partition cyclohexane / HPLC water, unbuffered, traces of methanol / DMSO [1] [log10] | log partition dichloromethane / HPLC water, unbuffered, traces of methanol / DMSO [1] [log10] | log partition n-hexane / HPLC water, unbuffered, traces of methanol / DMSO [1] [log10] | log partition n-octane / HPLC water, unbuffered, traces of methanol / DMSO [1] [log10] | log partition n-undecane / HPLC water, unbuffered, traces of methanol / DMSO [1] [log10] | log partition oleylalcohol / HPLC water, unbuffered, traces of methanol / DMSO [1] [log10] | log partition toluene / HPLC water, unbuffered, traces of methanol / DMSO [1] [log10]
CO/C=C(/C(=O)OC)c1ccccc1Oc1cc(Oc2ccccc2C#N)ncn1 |  |  |  |  |  |  |  |  |  |  | 2.62 | 3.136 | 2.817 | 1.291 | 2.944 | 0.8262 | 0.8047 | 0.5559 | 2.323 | 2.329
Oc1c(Cl)cc(Cl)c(Cl)c1Cc1c(O)c(Cl)cc(Cl)c1Cl |  |  |  |  |  |  |  |  |  |  | 3.536 | 2.622 | 2.343 | 2.027 | 1.996 | 1.5 | 1.932 | 2.251 | 2.088 | 2.305
CC(C)c1cccc(O)c1 | -0.1403 | -0.382 | 0.06183 | -0.6197 | -0.09834 | -0.5466 | -0.6932 | -0.7318 | -0.144 | -0.5154 |  |  |  |  |  |  |  |  |  | 
Nc1ccc(/N=N/c2ccccc2)cc1 | 1.65 | 1.2 | 1.001 | 1.333 | 1.434 | 1.192 | 1.439 | 1.239 | 1.015 | 0.9966 |  |  |  |  |  |  |  |  |  | 
CCCCCCCCCCCCN1CCCCCC1=O | -0.1202 | -1.099 | 0.3816 | -0.5564 | -0.008559 | -0.8813 | -0.4901 | -0.9092 | -0.7875 | -0.5083 |  |  |  |  |  |  |  |  |  | 
O=C1OC(=O)C2C3C=CC(C3)C12 (stereo not shown) | -0.9913 | -0.2228 | 0.8465 | -0.9247 | 1.732 | -0.7252 | -1.742 | -1.577 | 0.1202 | 0.5941 |  |  |  |  |  |  |  |  |  | 
